Where a SMILES comes first, the peptide text is derived from it. Bridges are numbered along the chain shown (N, C = ends). [ ]: non-standard residue; d: D form. Nle = CCCC[C@H](N)C(=O)O
Legend:
Assay in all cases: cell-based
Conditions in all cases: ratio of patch clamp IC50 values
human Kv1.6 = biological target: T1, human Kv1.6 (Homo sapiens, UniProt P17658)
T1 construct: expressed in transfected cells; host or cells: CHO

human Kv1.1 = biological target: T2, human Kv1.1 (Homo sapiens, UniProt Q09470)
T2 construct: expressed in transfected cells; host or cells: CHO

human Kv1.2 = biological target: T3, human Kv1.2 (Homo sapiens, UniProt P16389)
T3 construct: expressed in transfected cells; host or cells: CHO
T3 sequence (P16389 whole entry): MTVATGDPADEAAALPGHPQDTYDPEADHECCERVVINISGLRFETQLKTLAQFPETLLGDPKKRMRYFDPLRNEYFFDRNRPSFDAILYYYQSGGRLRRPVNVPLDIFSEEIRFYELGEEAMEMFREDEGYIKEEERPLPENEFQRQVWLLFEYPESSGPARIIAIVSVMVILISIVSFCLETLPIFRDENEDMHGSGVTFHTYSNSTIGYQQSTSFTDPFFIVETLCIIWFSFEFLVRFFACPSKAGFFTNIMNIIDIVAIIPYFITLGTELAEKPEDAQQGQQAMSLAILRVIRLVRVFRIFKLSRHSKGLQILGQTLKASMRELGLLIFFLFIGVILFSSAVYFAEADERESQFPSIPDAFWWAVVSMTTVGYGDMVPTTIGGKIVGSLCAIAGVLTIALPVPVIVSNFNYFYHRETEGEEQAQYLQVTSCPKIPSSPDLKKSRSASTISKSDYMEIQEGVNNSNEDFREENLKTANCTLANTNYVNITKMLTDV

T2 sequence (Q09470 whole entry): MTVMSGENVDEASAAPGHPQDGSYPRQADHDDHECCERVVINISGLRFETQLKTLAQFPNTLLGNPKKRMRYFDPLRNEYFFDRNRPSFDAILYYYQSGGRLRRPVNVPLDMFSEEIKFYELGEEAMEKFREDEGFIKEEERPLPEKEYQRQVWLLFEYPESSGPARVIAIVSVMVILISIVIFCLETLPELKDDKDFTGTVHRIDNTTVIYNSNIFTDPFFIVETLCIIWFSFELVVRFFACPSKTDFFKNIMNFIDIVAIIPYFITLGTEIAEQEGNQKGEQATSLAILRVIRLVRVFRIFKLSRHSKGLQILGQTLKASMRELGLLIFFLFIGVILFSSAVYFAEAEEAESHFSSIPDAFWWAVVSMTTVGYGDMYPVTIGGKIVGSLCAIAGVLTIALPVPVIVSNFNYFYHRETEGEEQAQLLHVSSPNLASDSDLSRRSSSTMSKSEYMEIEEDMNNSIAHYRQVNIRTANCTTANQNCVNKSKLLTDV
T1 sequence (P17658 whole entry): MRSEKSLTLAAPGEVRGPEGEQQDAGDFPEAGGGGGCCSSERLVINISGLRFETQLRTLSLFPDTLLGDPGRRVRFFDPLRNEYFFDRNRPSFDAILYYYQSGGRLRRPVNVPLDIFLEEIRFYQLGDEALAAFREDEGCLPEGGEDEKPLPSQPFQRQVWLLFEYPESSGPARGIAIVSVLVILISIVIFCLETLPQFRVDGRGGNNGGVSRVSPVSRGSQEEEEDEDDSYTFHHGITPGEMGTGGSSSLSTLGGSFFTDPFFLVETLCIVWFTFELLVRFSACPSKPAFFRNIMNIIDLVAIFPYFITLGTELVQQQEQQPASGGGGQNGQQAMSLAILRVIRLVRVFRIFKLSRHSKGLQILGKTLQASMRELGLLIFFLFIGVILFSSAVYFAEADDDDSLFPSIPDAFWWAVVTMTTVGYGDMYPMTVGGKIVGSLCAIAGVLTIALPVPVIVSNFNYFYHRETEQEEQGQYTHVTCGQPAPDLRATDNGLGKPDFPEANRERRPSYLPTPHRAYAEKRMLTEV

| Compound | Selectivity ratio Kv1.6/Kv1.3 (human Kv1.6) | Selectivity ratio Kv1.1/Kv1.3 (human Kv1.1) | Selectivity ratio Kv1.2/Kv1.3 (human Kv1.2) |
| --- | --- | --- | --- |
| CC[C@H](C)[C@@H]1NC(=O)[C@H](CCCNC(=N)N)NC(=O)[C@H](CCCCN)NC(=O)[C@H](CC(C)C)NC(=O)[C@@H]2CSSC[C@@H](C(=O)N[C@@H](Cc3ccc(O)cc3)C(=O)N3CCC[C@H]3C(=O)N[C@@H](CCCNC(=N)N)C(N)=O)NC(=O)[C@H](CCCCN)NC(=O)[C@@H]3CSSC[C@H](NC(=O)[C@H](CCC(=O)O)NC(=O)[C@H](C(C)C)NC(=O)[C@H](CO)NC(=O)[C@H](C)NC(=O)[C@H](CO)NC(=O)[C@@H](NC(=O)[C@H](CCCNC(=N)N)NC(=O)[C@H](CCSC)NC(=O)[C@H](CC(=O)O)NC(=O)[C@H](CCSC)NC(=O)[C@@H](N)CC(N)=O)CSSC[C@H](NC(=O)[C@H](CCCCN)NC(=O)CNC(=O)[C@H](Cc4ccccc4)NC(=O)[C@H]([C@@H](C)CC)NC(=O)[C@H](CO)NC(=O)CNC1=O)C(=O)N[C@@H](CCSC)C(=O)N[C@@H](CC(N)=O)C(=O)N[C@@H](CCCCN)C(=O)N[C@@H](CCCCN)C(=O)N3)C(=O)N[C@@H](CCCCN)C(=O)N[C@@H](CCC(N)=O)C(=O)N[C@@H](CCCCN)C(=O)N2 [compound 60] (H-NMDMRCSASVECKQKCLKRIGSIFGKCMNKKCKCYPR-NH2; disulfide 6-27, 12-32, 16-34) | 3062 | >9900 | 187 |
| CC[C@H](C)[C@@H]1NC(=O)[C@H](C)NC(=O)[C@H](CCCCN)NC(=O)[C@H](CC(C)C)NC(=O)[C@@H]2CSSC[C@@H](C(=O)N[C@@H](Cc3ccc(O)cc3)C(=O)N3CCC[C@H]3C(=O)N[C@@H](CCCNC(=N)N)C(=O)O)NC(=O)[C@H](CCCCN)NC(=O)[C@@H]3CSSC[C@H](NC(=O)[C@H](CCC(=O)O)NC(=O)[C@H](C(C)C)NC(=O)[C@H](CO)NC(=O)[C@H](C)NC(=O)[C@H](CO)NC(=O)[C@@H](NC(=O)[C@H](CCCNC(=N)N)NC(=O)[C@H](CCSC)NC(=O)[C@H](CC(=O)O)NC(=O)[C@@H](N)CCSC)CSSC[C@H](NC(=O)[C@H](CCCCN)NC(=O)CNC(=O)[C@H](Cc4ccccc4)NC(=O)[C@H]([C@@H](C)CC)NC(=O)[C@H](CO)NC(=O)CNC1=O)C(=O)N[C@@H](CCSC)C(=O)N[C@@H](CC(N)=O)C(=O)N[C@@H](CCCCN)C(=O)N[C@@H](CCCCN)C(=O)N3)C(=O)N[C@@H](CCCCN)C(=O)N[C@@H](CCC(N)=O)C(=O)N[C@@H](CCCCN)C(=O)N2 [compound 18] (H-MDMRCSASVECKQKCLKAIGSIFGKCMNKKCKCYPR-OH; disulfide 5-26, 11-31, 15-33) | >7900 | >7900 | 747 |
| CC[C@H](C)[C@@H]1NC(=O)[C@H](C)NC(=O)[C@H](CC(C)C)NC(=O)[C@@H]2CSSC[C@@H](C(=O)N[C@@H](Cc3ccc(O)cc3)C(=O)N3CCC[C@H]3C(=O)N[C@@H](CCCNC(=N)N)C(N)=O)NC(=O)[C@H](CCCCN)NC(=O)[C@@H]3CSSC[C@H](NC(=O)[C@H](CCC(=O)O)NC(=O)[C@H](C(C)C)NC(=O)[C@H](CO)NC(=O)[C@H](C)NC(=O)[C@H](CO)NC(=O)[C@@H](NC(=O)[C@H](CCCNC(=N)N)NC(=O)[C@H](CCSC)NC(=O)[C@H](CC(=O)O)NC(=O)[C@H](CCSC)NC(=O)[C@@H](N)CC(N)=O)CSSC[C@H](NC(=O)[C@H](CCCCN)NC(=O)CNC(=O)[C@H](Cc4ccccc4)NC(=O)[C@H]([C@@H](C)CC)NC(=O)[C@H](CO)NC(=O)CNC1=O)C(=O)N[C@@H](CCSC)C(=O)N[C@@H](CC(N)=O)C(=O)N[C@@H](CCCCN)C(=O)N[C@@H](CCCCN)C(=O)N3)C(=O)N[C@@H](CCCCN)C(=O)N[C@@H](CCC(N)=O)C(=O)N[C@@H](CCCCN)C(=O)N2 [compound 58] (H-NMDMRCSASVECKQKCLAIGSIFGKCMNKKCKCYPR-NH2; disulfide 6-26, 12-31, 16-33) | >1200 | >1200 | 121 |
| CC[C@H](C)[C@@H]1NC(=O)[C@H](CO)NC(=O)CNC(=O)[C@H](Cc2ccc(O)cc2)NC(=O)[C@H](C)NC(=O)[C@H](CCCCN)NC(=O)[C@H](CC(C)C)NC(=O)[C@@H]2CSSC[C@@H](C(=O)N[C@@H](Cc3ccc(O)cc3)C(=O)N3CCC[C@H]3C(=O)N[C@@H](CCCNC(=N)N)C(N)=O)NC(=O)[C@H](CCCCN)NC(=O)[C@@H]3CSSC[C@H](NC(=O)[C@H](CCC(=O)O)NC(=O)[C@H](C(C)C)NC(=O)[C@H](CO)NC(=O)[C@H](C)NC(=O)[C@H](CO)NC(=O)[C@@H](NC(=O)[C@H](CCCNC(=N)N)NC(=O)[C@H](CCSC)NC(=O)[C@H](CC(=O)O)NC(=O)[C@H](CCSC)NC(=O)[C@@H](N)CC(N)=O)CSSC[C@H](NC(=O)[C@H](CCCCN)NC(=O)CNC(=O)[C@H](Cc4ccccc4)NC1=O)C(=O)N[C@@H](CCSC)C(=O)N[C@@H](CC(N)=O)C(=O)N[C@@H](CCCCN)C(=O)N[C@@H](CCCCN)C(=O)N3)C(=O)N[C@@H](CCCCN)C(=O)N[C@@H](CCC(N)=O)C(=O)N[C@@H](CCCCN)C(=O)N2 [compound 61] (H-NMDMRCSASVECKQKCLKAYGSIFGKCMNKKCKCYPR-NH2; disulfide 6-27, 12-32, 16-34) | >8800 | >8800 | 426 |
| CCCC[C@H](NC(=O)[C@H](CC(=O)O)NC(=O)[C@H](CCCC)NC(=O)[C@@H](N)CO)C(=O)N[C@@H](CCCNC(=N)N)C(=O)N[C@H]1CSSC[C@@H]2NC(=O)[C@H](CCCCN)NC(=O)CNC(=O)[C@H](Cc3ccccc3)NC(=O)[C@H]([C@@H](C)CC)NC(=O)[C@H](CO)NC(=O)CNC(=O)[C@H]([C@@H](C)CC)NC(=O)[C@H](C)NC(=O)[C@H](CCCCN)NC(=O)[C@H](CC(C)C)NC(=O)[C@@H]3CSSC[C@@H](C(=O)N[C@@H](Cc4ccc(O)cc4)C(=O)N4CCC[C@H]4C(=O)N[C@@H](CCCNC(=N)N)C(N)=O)NC(=O)[C@H](CCCCN)NC(=O)[C@H](CSSC[C@H](NC(=O)[C@H](CCC(=O)O)NC(=O)[C@H](C(C)C)NC(=O)[C@H](CO)NC(=O)[C@H](C)NC(=O)[C@H](CO)NC1=O)C(=O)N[C@@H](C)C(=O)N[C@@H](CCC(N)=O)C(=O)N[C@@H](CO)C(=O)N3)NC(=O)[C@H](CCCCN)NC(=O)[C@H](CCCCN)NC(=O)[C@H](CC(N)=O)NC(=O)[C@H](CCSC)NC2=O [compound 78] (H-S[Nle]D[Nle]RCSASVECAQSCLKAIGSIFGKCMNKKCKCYPR-NH2; disulfide 6-27, 12-32, 16-34) | >14600 | >14600 | 5596 |
| CC[C@H](C)[C@@H]1NC(=O)[C@H](C)NC(=O)[C@H](CCCCN)NC(=O)[C@H](CC(C)C)NC(=O)[C@@H]2CSSC[C@@H](C(=O)N[C@@H](Cc3ccc(O)cc3)C(=O)N3CCC[C@H]3C(=O)N[C@@H](CCCNC(=N)N)C(=O)O)NC(=O)[C@H](CCCCN)NC(=O)[C@@H]3CSSC[C@H](NC(=O)[C@H](CCC(=O)O)NC(=O)[C@H](C(C)C)NC(=O)[C@H](CO)NC(=O)[C@H](C)NC(=O)[C@H](CO)NC(=O)[C@@H](NC(=O)[C@H](CCCNC(=N)N)NC(=O)[C@H](CCSC)NC(=O)[C@H](CCC(=O)O)NC(=O)[C@H](CCSC)NC(=O)[C@@H](N)CC(N)=O)CSSC[C@H](NC(=O)[C@H](CCCCN)NC(=O)CNC(=O)[C@H](Cc4ccccc4)NC(=O)[C@H]([C@@H](C)CC)NC(=O)[C@H](CO)NC(=O)CNC1=O)C(=O)N[C@@H](CCSC)C(=O)N[C@@H](CC(N)=O)C(=O)N[C@@H](CCCCN)C(=O)N[C@@H](CCCCN)C(=O)N3)C(=O)N[C@@H](CCCCN)C(=O)N[C@@H](CCC(N)=O)C(=O)N[C@@H](CCCCN)C(=O)N2 [compound 20] (H-NMEMRCSASVECKQKCLKAIGSIFGKCMNKKCKCYPR-OH; disulfide 6-27, 12-32, 16-34) | >27600 | >27600 | 2093 |

Source: patent publication US20240182531A1, “KV1.3 Blockers” (priority 2021, published 2024)
